Laboratory results as given in ChEMBL document CHEMBL4130388, “Recent advances of pyrazole-containing derivatives as anti-tubercular agents” (Eur J Med Chem, 2017).
≈ marks a conversion by molar mass, not a printed value.

Columns and labels:
Format in all cases: functional
[1] = system: Mycobacterium tuberculosis; assay: Antitubercular activity against Mycobacterium tuberculosis H37Rv by Lowensteine-Jensen method
[2] = system: Mycobacterium tuberculosis; assay: Antitubercular activity against Mycobacterium tuberculosis H37Rv
[3] = system: Mycobacterium tuberculosis; assay: Antitubercular activity against Mycobacterium tuberculosis spec.210
[4] = system: Mycobacterium tuberculosis; assay: Antitubercular activity against Mycobacterium tuberculosis spec.192
[5] = system: Mycobacterium tuberculosis; assay: Antitubercular activity against Mycobacterium tuberculosis H37Rv by broth dilution method
[6] = system: Mycobacterium tuberculosis; assay: Antitubercular activity against Mycobacterium tuberculosis

Row | Structure (SMILES) | MIC [1] [µg/mL] | MIC [2] | MIC [3] [µM] | MIC [4] [µM] | other results
1 | O=C(NCCCn1ncc2ccc([N+](=O)[O-])cc21)N1C(=O)C(Cl)C1c1ccccc1[N+](=O)[O-] (stereo not given) | 6.25 to 50 (≈ 13.2 to 106 µM) | – | – | – | –
2 | COc1ccc(-n2cc(Cn3ncc4c3CCN(C(=O)Nc3ccccc3)C4)nn2)cc1OC | – | 24.7 to 200 µM | 24.7 to 200 (≈ 11.4 to 91.9 µg/mL) | 24.7 to 200 (≈ 11.4 to 91.9 µg/mL) | –
3 | COc1cccc(C2C(Cl)C(=O)N2C(=O)NCCCn2ncc3ccc([N+](=O)[O-])cc32)c1 (stereo not given) | 6.25 to 50 (≈ 13.7 to 109 µM) | – | – | – | –
4 | CCOC(=O)C1=C(C)NC(=O)NC1c1cn(-c2ccccc2)nc1-c1ccc(F)cc1 (stereo not given) | – | – | – | – | MIC [5]: 0.02 µg/mL (≈ 0.0476 µM)
5 | O=C(Nc1ccccc1)N1CCc2c(cnn2Cc2cn(-c3ccccc3F)nn2)C1 | – | 24.7 to 200 µM | 24.7 to 200 (≈ 10.3 to 83.5 µg/mL) | 24.7 to 200 (≈ 10.3 to 83.5 µg/mL) | –
6 | O=C(NCCCn1ncc2ccc([N+](=O)[O-])cc21)N1C(=O)C(Cl)C1c1cccc(O)c1 (stereo not given) | 6.25 to 50 (≈ 14.1 to 113 µM) | – | – | – | –
7 | O=C(Nc1ccccc1)N1CCc2c(cnn2Cc2cn(-c3ccc(I)cc3)nn2)C1 | – | 24.7 to 200 µM | 24.7 to 200 (≈ 13 to 105 µg/mL) | 24.7 to 200 (≈ 13 to 105 µg/mL) | –
8 | Nc1nc(-c2ccc(O)cc2)cc(-c2cn(-c3ccccc3)nc2-c2ccc(F)cc2)n1 | – | – | – | – | IC90 [6]: 0.88 µg/mL (≈ 2.08 µM)
9 | O=C(NCCCn1ncc2ccc([N+](=O)[O-])cc21)N1C(=O)C(Cl)C1c1cccc([N+](=O)[O-])c1 (stereo not given) | 6.25 to 50 (≈ 13.2 to 106 µM) | – | – | – | –
10 | NC(=O)c1cnccn1 [PYRAZINAMIDE] | 0.2 to 4 (≈ 1.62 to 32.5 µM) | 50 µg/mL | – | – | MIC [6]: 100 µg/mL (≈ 812 µM)
11 | O=C(Nc1ccccc1)N1CCc2c(cnn2Cc2cn(-c3cc(Cl)cc(Cl)c3)nn2)C1 | – | 24.7 to 200 µM | 24.7 to 200 (≈ 11.6 to 93.7 µg/mL) | 24.7 to 200 (≈ 11.6 to 93.7 µg/mL) | –
12 | CCOC(=O)C1=C(C)NC(=O)NC1c1cn(-c2ccccc2)nc1-c1ccc([N+](=O)[O-])cc1 (stereo not given) | – | – | – | – | MIC [5]: 0.02 µg/mL (≈ 0.0447 µM)
13 | O=C(NCCCn1ncc2ccc([N+](=O)[O-])cc21)N1C(=O)C(Cl)C1c1ccccc1 (stereo not given) | 6.25 to 50 (≈ 14.6 to 117 µM) | – | – | – | –
14 | O=C(Nc1ccccc1)N1CCc2c(cnn2Cc2cn(-c3ccc(F)cc3)nn2)C1 | – | 24.7 to 200 µM | 24.7 to 200 (≈ 10.3 to 83.5 µg/mL) | 24.7 to 200 (≈ 10.3 to 83.5 µg/mL) | –
15 | O=C(Nc1ccccc1)N1CCc2c(cnn2Cc2cn(-c3ccc(Br)c(OC(F)(F)F)c3)nn2)C1 | – | 24.7 to 200 µM | 24.7 to 200 (≈ 13.9 to 112 µg/mL) | 24.7 to 200 (≈ 13.9 to 112 µg/mL) | –
16 | O=C(Nc1ccccc1)N1CCc2c(cnn2Cc2cn(-c3ccccc3)nn2)C1 | – | 24.7 to 200 µM | 24.7 to 200 (≈ 9.87 to 79.9 µg/mL) | 24.7 to 200 (≈ 9.87 to 79.9 µg/mL) | –
17 | Cc1ccc(-n2cc(Cn3ncc4c3CCN(C(=O)Nc3ccccc3)C4)nn2)cc1 | – | 24.7 to 200 µM | 24.7 to 200 (≈ 10.2 to 82.7 µg/mL) | 24.7 to 200 (≈ 10.2 to 82.7 µg/mL) | –
18 | O=C(Nc1ccccc1)N1CCc2c(cnn2Cc2cn(-c3ccccc3[N+](=O)[O-])nn2)C1 | – | 24.7 to 200 µM | 24.7 to 200 (≈ 11 to 88.9 µg/mL) | 24.7 to 200 (≈ 11 to 88.9 µg/mL) | –
19 | O=C(Nc1ccccc1)N1CCc2c(cnn2Cc2cn(-c3ccc(Br)cc3)nn2)C1 | – | 24.7 to 200 µM | 24.7 to 200 (≈ 11.8 to 95.7 µg/mL) | 24.7 to 200 (≈ 11.8 to 95.7 µg/mL) | –
20 | COc1ccc(C2C(Cl)C(=O)N2C(=O)NCCCn2ncc3ccc([N+](=O)[O-])cc32)cc1 (stereo not given) | 6.25 to 50 (≈ 13.7 to 109 µM) | – | – | – | –
21 | O=C(Nc1ccccc1)N1CCc2c(cnn2Cc2cn(-c3cccc(Cl)c3)nn2)C1 | – | 24.7 to 200 µM | 24.7 to 200 (≈ 10.7 to 86.8 µg/mL) | 24.7 to 200 (≈ 10.7 to 86.8 µg/mL) | –
22 | O=C(NCCCn1ncc2ccc([N+](=O)[O-])cc21)N1C(=O)C(Cl)C1c1ccc(Br)cc1 (stereo not given) | 6.25 to 50 (≈ 12.3 to 98.7 µM) | – | – | – | –
23 | O=C(NCCCn1ncc2ccc([N+](=O)[O-])cc21)N1C(=O)C(Cl)C1c1ccccc1Br (stereo not given) | 6.25 to 50 (≈ 12.3 to 98.7 µM) | – | – | – | –
24 | O=C(NCCCn1ncc2ccc([N+](=O)[O-])cc21)N1C(=O)C(Cl)C1c1cccc(Br)c1 (stereo not given) | 6.25 to 50 (≈ 12.3 to 98.7 µM) | – | – | – | –
25 | O=C(Nc1ccccc1)N1CCc2c(cnn2Cc2cn(-c3ccc(F)c(Cl)c3)nn2)C1 | – | 24.7 to 200 µM | 24.7 to 200 (≈ 11.2 to 90.4 µg/mL) | 24.7 to 200 (≈ 11.2 to 90.4 µg/mL) | –
26 | O=C(Nc1ccccc1)N1CCc2c(cnn2Cc2cn(-c3ccc(F)c(F)c3)nn2)C1 | – | 24.7 to 200 µM | 24.7 to 200 (≈ 10.8 to 87.1 µg/mL) | 24.7 to 200 (≈ 10.8 to 87.1 µg/mL) | –
27 | CO[C@H]1/C=C/O[C@@]2(C)Oc3c(C)c(O)c4c(O)c(c(/C=N/N5CCN(C)CC5)c(O)c4c3C2=O)NC(=O)/C(C)=C\C=C\[C@H](C)[C@H](O)[C@@H](C)[C@@H](O)[C@@H](C)[C@H](OC(C)=O)[C@@H]1C [RIFAMPIN] | 0.2 to 4 (≈ 0.243 to 4.86 µM) | – | – | – | –
